Among the data in BindingDB's records for doi:10.1016/S0960-894X(01)80278-X (n/a, 1994) are IC50 values, retold here.

The test can be described thus: Antiviral activity against HIV-1 in CEM cells.

Starred links: 1 amine or outer side, 2 acyl side, 3 side chain; linkers in the order of their positions; H or OH if unused. Non-standard residues stand in square brackets, D forms with d. Residues, ends and D or L forms follow the SMILES beside them. *: point of attachment. X2 = C=CCN([C@@H](C)C(=O)[*:2])[*:1]; X1 = O=C(CN(CC(Br)CBr)[*:1])[*:2]; X3 = O=C(CN(CC(Cl)CCl)[*:1])[*:2]; NAllylGly = C=CCNCC(=O)O; Boc = CC(C)(C)OC(=O)*

`CC[C@H](C)[C@H](NC(=O)CN(CC(Cl)CCl)C(=O)[C@H](Cc1ccccc1)NC(=O)[C@H](C)NC(=O)OC(C)(C)C)C(=O)N[C@H](C(=O)OC)C(C)C` (stereo not given in full) (Boc-AF[X3]IV-OMe) yielded an IC50 of over 136 µM.

`C=CCN(CC(=O)N[C@H](C(=O)N[C@H](C(=O)OC)C(C)C)[C@@H](C)CC)C(=O)[C@H](Cc1ccccc1)NC(=O)[C@H](C)NC(=O)[C@H](C)NC(=O)[C@H](CO)NC(=O)OC(C)(C)C` (Boc-SAAF[NAllylGly]IV-OMe) had an IC50 of over 24.4 µM.

As to `C=CCN(C(=O)[C@H](Cc1ccccc1)NC(=O)[C@H](C)NC(=O)[C@H](C)NC(=O)[C@H](CO)NC(=O)OC(C)(C)C)[C@@H](C)C(=O)N[C@H](C(=O)N[C@H](C(=O)OC)C(C)C)[C@@H](C)CC` (Boc-SAAF[X2]IV-OMe), the IC50 is over 120 µM.

With `C=CCN(C(=O)[C@H](Cc1ccccc1)NC(=O)[C@H](C)NC(=O)OC(C)(C)C)[C@@H](C)C(=O)N[C@H](C(=O)N[C@H](C(=O)OC)C(C)C)[C@@H](C)CC` (Boc-AF[X2]IV-OMe), the IC50 was over 296 µM.

Take `C=CCN(CC(=O)N[C@H](C(=O)N[C@H](C(=O)OC)C(C)C)[C@@H](C)CC)C(=O)[C@@H](N)Cc1ccccc1` (H-F[NAllylGly]IV-OMe): the IC50 was over 204 µM.

Regarding `CC[C@H](C)[C@H](NC(=O)CN(CC(Br)CBr)C(=O)[C@H](Cc1ccccc1)NC(=O)OC(C)(C)C)C(=O)N[C@H](C(=O)OC)C(C)C` (stereo not given in full), half-maximal inhibition (IC50) required 56.7 µM.

For `C=CCN(C(=O)[C@H](Cc1ccccc1)NC(=O)[C@H](C)NC(=O)[C@H](C)NC(=O)OC(C)(C)C)[C@@H](C)C(=O)N[C@H](C(=O)N[C@H](C(=O)OC)C(C)C)[C@@H](C)CC` (Boc-AAF[X2]IV-OMe), the IC50 was found to be 3.89 µM.

`CC[C@H](C)[C@H](NC(=O)CN(CC(Cl)CCl)C(=O)[C@H](Cc1ccccc1)NC(=O)OC(C)(C)C)C(=O)N[C@H](C(=O)OC)C(C)C` (stereo not given in full): the IC50 was over 50.4 µM.

`C=CCN(CC(=O)N[C@H](C(=O)N[C@H](C(=O)OC)C(C)C)[C@@H](C)CC)C(=O)[C@H](Cc1ccccc1)NC(=O)[C@H](C)N` (H-AF[NAllylGly]IV-OMe) yielded an IC50 of over 178 µM.

`CC[C@H](C)[C@H](NC(=O)CN(CC(Br)CBr)C(=O)[C@H](Cc1ccccc1)NC(=O)[C@H](C)NC(=O)OC(C)(C)C)C(=O)N[C@H](C(=O)OC)C(C)C` (stereo not given in full) (Boc-AF[X1]IV-OMe) returned an IC50 of over 610 µM.

In turn, `C=CCN(CC(=O)N[C@H](C(=O)N[C@H](C(=O)OC)C(C)C)[C@@H](C)CC)C(=O)OC(C)(C)C` yielded an IC50 of over 226 µM.

For the molecule `C=CCNCC(=O)N[C@H](C(=O)N[C@H](C(=O)OC)C(C)C)[C@@H](C)CC`, the IC50 is over 195 µM.

`C=CCN(CC(=O)N[C@H](C(=O)N[C@H](C(=O)OC)C(C)C)[C@@H](C)CC)C(=O)[C@H](Cc1ccccc1)NC(=O)OC(C)(C)C` (Boc-F[NAllylGly]IV-OMe) displayed an IC50 of over 169 µM.

`C=CCN(CC(=O)N[C@H](C(=O)N[C@H](C(=O)OC)C(C)C)[C@@H](C)CC)C(=O)[C@H](Cc1ccccc1)NC(=O)[C@H](C)NC(=O)OC(C)(C)C` (Boc-AF[NAllylGly]IV-OMe) showed an IC50 of 54.1 µM.

`C=CCN(C(=O)[C@H](Cc1ccccc1)NC(=O)OC(C)(C)C)[C@@H](C)C(=O)N[C@H](C(=O)N[C@H](C(=O)OC)C(C)C)[C@@H](C)CC` had an IC50 of over 16.5 µM.
